In one series the target is T1, hEP2/Gqs5 (Homo sapiens, UniProt P43116).
T1 construct: expressed in transfected cells; host or cells: HEK-293(EBNA)
Briefly: FLIPR calcium signal, EP2. The series is classed as cell-based. As to conditions: HEK-293(EBNA) cells. The method, then:
(§1) HEK-293(EBNA) cells, stably expressing one type or subtype of recombinant human prostaglandin receptors (prostaglandin receptors expressed: hDP/Gqs5; hEP1; hEP2/Gqs5; hEP3A/Gqi5; hEP4/Gqs5; hFP; hIP; hTP), were cultured in 100 mm culture dishes in high-glucose DMEM medium containing 10% fetal bovine serum, 2 mM l-glutamine, 250 μg/ml geneticin (G418) and 200 μg/ml hygromycin B as selection markers, and 100 units/ml penicillin G, 100 μg/ml streptomycin and 0.25 μg/ml amphotericin B.
(§2) Cells were seeded at a density of 5×10^4 cells per well in Biocoat® Poly-D-lysine-coated black-wall, clear-bottom 96-well plates (Becton-Dickinson) and allowed to attach overnight in an incubator at 37° C. Cells were then washed two times with HBSS-HEPES buffer (Hanks Balanced Salt Solution without bicarbonate and phenol red, 20 mM HEPES, pH 7.4) using a Denley Cellwash plate washer (Labsystems). After 45 minutes of dye-loading in the dark, using the calcium-sensitive dye Fluo-4 […] at a final concentration of 2 μM, plates were washed four times with HBSS-HEPES buffer to remove excess dye leaving 100 μl in each well. Plates were re-equilibrated to 37° C. for a few minutes.
(§3) Cells were excited with an Argon laser at 488 nm, and emission was measured through a 510-570 nm bandwidth emission filter (FLIPR™, Molecular Devices, Sunnyvale, Calif.). Drug solution was added in a 50 μl volume to each well to give the desired final concentration. The peak increase in fluorescence intensity was recorded for each well. On each plate, four wells each served as negative (HBSS-HEPES buffer) and positive controls (standard agonists: BW245C (hDP); PGE2 (hEP1; hEP2/Gqs5; hEP3A/Gqi5; hEP4/Gqs5); PGF2α (hFP); carbacyclin (hIP); U-46619 (hTP), depending on receptor). The peak fluorescence change in each drug-containing well was then expressed relative to the controls.
(§4) Compounds were tested in a high-throughput (HTS) or concentration-response (CoRe) format. In the HTS format, forty-four compounds per plate were examined in duplicates at a concentration of 10^−5 M. To generate concentration-response curves, four compounds per plate were tested in duplicates in a concentration range between 10^−5 and 10^−11 M. The duplicate values were averaged. In either, HTS or CoRe format each compound was tested on at least 3 separate plates using cells from different passages to give an n≧3.

Series [1] concerns the target T2, EP2 (Homo sapiens, UniProt P43116). Nature of the series: Competition binding [3H]PGE2, EP2 Ki. Also noted: expressed in transfected cells; host or cells: HEK 293. As to conditions: [3H]PGE2 competition, HEK 293 cells expressing human EP2. The method, then: Competition binding experiments were performed in a medium containing Hank's balanced salt solution, Hepes 20 mM, pH 7.3, membranes (˜60 μg protein) or 2×10^5 cells from HEK 293 cells stably expressing human EP2 receptors, [^3H]PGE2 (10 nM) and various concentrations of test compounds in a total volume of 300 μl. Reaction mixtures were incubated at 23° C. for 60 min, and were filtered over Whatman GF/B filters under vacuum. Filters were washed three times with 5 ml ice-cold buffer containing 50 mM Tris/HCl (pH 7.3). Non-specific binding was estimated in the presence of excess unlabeled PGE2 (10 μM). Binding data fitted to the binding model for a single class of binding sites, using nonlinear regression analysis. IC50 values thus obtained were converted to Ki using the equation of Ki=(IC50/(1+[L]/KD) where [L] represents PGE2 concentration (10 nM) and KD the dissociation constant for [^3H]PGE2 at human EP2 receptors (40 nM).
(§5) HEK-293 cells stably expressing the human or feline FP receptor, or EP1, EP2, or EP4 receptors were washed with TME buffer, scraped from the bottom of the flasks, and homogenized for 30 sec using a Brinkman PT 10/35 polytron. TME buffer was added to achieve a final 40 ml volume in the centrifuge tubes (the composition of TME is 100 mM TRIS base, 20 mM MgCl2, […]; 10N HCl is added to achieve a pH of 7.4).
(§6) The cell homogenate was centrifuged at 19000 r.p.m. for 20 min at 4° C. using a Beckman Ti-60 rotor. The resultant pellet was resuspended in TME buffer to give a final 1 mg/ml protein concentration, as determined by Biorad assay. Radioligand binding competition assays vs. [^3H-]17-phenyl PGF2α (5 nM) were performed in a 100 μl volume for 60 min. Binding reactions were started by adding plasma membrane fraction. The reaction was terminated by the addition of 4 ml ice-cold TRIS-HCl buffer and rapid filtration through glass fiber GF/B filters using a Brandel cell harvester. The filters were washed 3 times with ice-cold buffer and oven dried for one hour.
(§7) [^3H-] PGE2 (specific activity 180 Ci mmol) was used as the radioligand for EP receptors. [^3H] 17-phenyl PGF2α was employed for FP receptor binding studies. Binding studies employing EP1, EP2, EP4 and FP receptors were performed in duplicate in at least three separate experiments. A 200 μl assay volume was used. Incubations were for 60 min at 25° C. and were terminated by the addition of 4 ml of ice-cold 50 mM TRIS-HCl, followed by rapid filtration through Whatman GF/B filters and three additional 4 ml washes in a cell harvester (Brandel). Competition studies were performed using a final concentration of 5 nM [^3H]-PGE2, or 5 nM [^3H] 17-phenyl PGF2α and non-specific binding determined with 10^−5M of unlabeled PGE2, or 17-phenyl PGF2α, according to receptor subtype studied.

For the next series, the target named is T3, EP4 receptors (Homo sapiens, UniProt P35408).
T3 construct: expressed in transfected cells; host or cells: HEK-293
T3 sequence (P35408 whole entry): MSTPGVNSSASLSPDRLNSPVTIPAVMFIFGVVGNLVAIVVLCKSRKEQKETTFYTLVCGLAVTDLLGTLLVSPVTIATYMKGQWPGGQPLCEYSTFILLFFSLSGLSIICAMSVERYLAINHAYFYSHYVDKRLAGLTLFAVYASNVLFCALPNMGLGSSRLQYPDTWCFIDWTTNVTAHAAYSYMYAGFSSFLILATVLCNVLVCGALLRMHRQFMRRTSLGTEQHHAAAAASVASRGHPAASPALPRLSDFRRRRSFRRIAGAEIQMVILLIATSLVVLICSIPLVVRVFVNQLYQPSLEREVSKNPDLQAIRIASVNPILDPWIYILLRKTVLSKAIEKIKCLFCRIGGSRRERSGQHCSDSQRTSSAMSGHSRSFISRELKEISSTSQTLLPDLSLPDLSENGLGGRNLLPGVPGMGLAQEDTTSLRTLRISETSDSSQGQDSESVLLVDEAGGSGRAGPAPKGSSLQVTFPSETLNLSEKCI
Nature of the series: Radioligand binding [3H]PGE2, EP4 Ki. As to conditions: [3H]PGE2 competition, HEK-293 cells expressing EP4. How it is done: as §5, §6, §7

Another series concerns the target T4, hTP (Homo sapiens, UniProt P21731).
T4 construct: expressed in transfected cells; host or cells: HEK-293(EBNA)
T4 sequence (P21731 1-343): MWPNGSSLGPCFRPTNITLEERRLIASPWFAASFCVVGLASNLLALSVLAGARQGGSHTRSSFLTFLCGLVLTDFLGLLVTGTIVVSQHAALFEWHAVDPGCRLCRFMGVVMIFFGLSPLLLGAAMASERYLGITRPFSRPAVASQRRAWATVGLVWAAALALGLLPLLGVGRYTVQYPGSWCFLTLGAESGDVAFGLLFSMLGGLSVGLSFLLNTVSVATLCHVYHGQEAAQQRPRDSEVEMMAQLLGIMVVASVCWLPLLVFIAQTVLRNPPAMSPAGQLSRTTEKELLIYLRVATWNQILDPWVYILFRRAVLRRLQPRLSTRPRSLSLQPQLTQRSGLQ
Nature of the series: FLIPR calcium signal, hTP. The series is classed as cell-based. As to conditions: read-out: Other Receptors (EC50 in nM) hTP. The method, then:
as §1, §2, §3
Compounds were tested in a high-throughput (HTS) or concentration-response (CoRe) format. […]

Series [2] has as its target T2, EP2. Nature of the series: cAMP assay, EP2. Also noted: expressed in transfected cells; host or cells: HEK-EBNA. The series is classed as cell-based. As to conditions: HEK-EBNA cells expressing EP2. The method, then: A 384-well drug plate was prepared to contain 6 test compounds, PGE2 and cAMP in 16 serial dilutions in triplicate, using a Biomek station. HEK-EBNA cells expressing a target PG receptor subtype (EP2 or EP4) were suspended in a stimulation buffer (HBSS, 0.1% BSA, 0.5 mM IBMX and 5 mM HEPES, pH 7.4) in a density of 10^4 cells/5 μl. The reaction was initiated by mixing 5 μL drug dilutions with 5 μl of HEK-EBNA cells in a well, carried out for 30 min at room temperature, and followed by the addition of 5 μl anti-cAMP acceptor beads in the control buffer with Tween-20 (25 mM NaCl, 0.03% Tween-20, 5 mM HEPES, pH7.4). After 30 min in the dark at room temperature, the mixtures were incubated with 15 μl biotinylated-cAMP/strepavidin donor beads in Lysis/Detection buffer (0.1% BSA, 0.3% Tween-20 and 5 mM HEPES, pH7.4) for 45 min at the room temperature. Fluorescence changes were read using a Fusion-alpha HT microplate reader.
For orientation: Changes in cAMP serve as a functional read-out for many G protein-coupled receptors.

The next series deals with normotensive dogs. Nature of the series: Intraocular pressure and ocular surface hyperemia in normotensive dogs. Also noted: scale not given here. The series is classed as in vivo, dog. As to conditions: 0.01%, once daily for 5 days, at 74 h. An excerpt:
U.S. Pat. No. 7,091,231 describes the methods used for these in vivo tests.

Another series concerns the target T5, hEP4/Gqs5 (Homo sapiens, UniProt P35408).
T5 construct: expressed in transfected cells; host or cells: HEK-293(EBNA)
Briefly: FLIPR calcium signal, EP4. The series is classed as cell-based. As to conditions: HEK-293(EBNA) cells. How it is done: as §1, §2, §3, §4

This is an account of results in patent publication US7592366B2, “Therapeutic compounds” (Allergan, Inc., priority 2006, dated 2009).

For orientation: EC50 means the concentration that produces a half-maximal response. For orientation: Ki means the dissociation constant of the complex between target and ligand, obtained from inhibition or displacement.

T2 sequence (P43116 whole entry): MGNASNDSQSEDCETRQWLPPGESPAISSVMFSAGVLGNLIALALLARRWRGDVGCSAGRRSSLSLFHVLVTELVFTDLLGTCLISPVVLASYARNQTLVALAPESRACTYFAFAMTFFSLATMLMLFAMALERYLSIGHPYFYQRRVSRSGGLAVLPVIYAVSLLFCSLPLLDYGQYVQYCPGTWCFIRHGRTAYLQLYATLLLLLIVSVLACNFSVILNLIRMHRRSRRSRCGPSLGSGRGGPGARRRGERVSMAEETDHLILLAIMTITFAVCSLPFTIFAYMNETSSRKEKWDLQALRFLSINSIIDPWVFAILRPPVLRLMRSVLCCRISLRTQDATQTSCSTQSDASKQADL
T5 sequence (P35408 whole entry): as the sequence (P35408 whole entry) above
T1 sequence (P43116 whole entry): as the sequence (P43116 whole entry) above

For `O=C(O)CCCCCC[C@@H]1[C@@H](CCc2cc(Cl)cc(Cl)c2)[C@H](O)C[C@H]1Cl` [compound 6, 7-{(1R,2R,3R,5R)-5-Chloro-2-[2-(3,5-dichloro-phenyl)-ethyl]-3-hydroxy-cyclopentyl}-heptanoic acid], the EC50 at hEP2/Gqs5 was 3270 nM; on hTP, 4620 nM; at EP2 [2], 0.8 nM; on hEP4/Gqs5 it was 10200 nM. For the same molecule, the values for the Ki on EP2 [1] and at EP4 receptors were 22 nM and 394 nM, respectively. In the series with normotensive dogs, the “maximum ocular surface hyperemia (OSH) score” value worked out at 0.8.
